Source: patent US8101618B2, “1,4-substituted piperazine derivatives” (MSD K.K., priority 2005, dated 2012)

Experiments:
[1] = biological target: T1, human metabotropic glutamic acid receptor 1a (mGluR1a) (Homo sapiens, UniProt Q13255); experiment: Measurement of intracellular calcium concentration (FLIPR) in mGluR1a-expressing CHO cells; assay type: cell-based; conditions: for IC50: Fluo-3, compound added 5 minutes before 10 μM glutamic acid, read-out: IC50 (inhibition of the calcium increase caused by 10 μM glutamic acid); for agonistic effect to mGluR1: to 10 μM, intracellular calcium
T1 construct: expressed in transfected cells
Description: Using LIPOFECTAMINE (BY Gibco BRL), CHO cells were transfected with a cDNA of a human metabotropic glutamic acid receptor 1a (mGluR1a), thereby obtaining an mGluR1a stable expression strain. The mGluR1a-expressing CHO cells were incubated in a DMEM medium containing 10% dialyzed fetal calf serum, 1% proline, 100 units/ml penicillin, 0.1 mg/ml streptomycin sulfate, and 2 mM glutamine.
On the day before the test day, the mGluR1a-expressing CHO cells that had been plated in a 96-well black plate (View Plate by Packard) at […] with 4 μM Fluo-3 were incubated in a CO2 incubator for 1 hour. Next, the cells were washed four times with an HBSS solution containing 20 mM HEPES and 2.5 mM Probenecid, and then the intracellular calcium concentration was measured using Fluorescence Imaging Plate Reader (FLIPR by Molecular Device). The test compound and glutamic acid were conditioned with an HBSS solution containing 20 mM HEPES and 2.5 mM Probenecid. The test compound was added to the system before 5 minutes of agonist stimulation, and 10 μM glutamic acid was used as the agonist.

Male ICR (CD-1) mice = experiment: Inhibitory effect of compound to mouse action increased by methamphetamine; assay type: in vivo; conditions: compound 30 mg/kg intraabdominal 30 minutes before methamphetamine 2 mg/kg subcutaneous; motion watched for 60 minutes
Description: Male ICR (CD-1) mice (20-40 g) were used. Using a motion watcher (by Neuroscience) for watching animal movement with an IR sensor, the motion of the mice was determined. A compound or a suitable solvent was administered to each mouse, and after 30 minutes, physiological saline water or methamphetamine was administered thereto. Immediately after that, the motion of the mice was watched for 60 minutes. Based on the difference between the motion of the methamphetamine-administered group and the solvent-administered group during the test term, 100%, the motion of the test compound-administered group is computed and expressed as inhibition %.

T1 sequence (Q13255 19-1194): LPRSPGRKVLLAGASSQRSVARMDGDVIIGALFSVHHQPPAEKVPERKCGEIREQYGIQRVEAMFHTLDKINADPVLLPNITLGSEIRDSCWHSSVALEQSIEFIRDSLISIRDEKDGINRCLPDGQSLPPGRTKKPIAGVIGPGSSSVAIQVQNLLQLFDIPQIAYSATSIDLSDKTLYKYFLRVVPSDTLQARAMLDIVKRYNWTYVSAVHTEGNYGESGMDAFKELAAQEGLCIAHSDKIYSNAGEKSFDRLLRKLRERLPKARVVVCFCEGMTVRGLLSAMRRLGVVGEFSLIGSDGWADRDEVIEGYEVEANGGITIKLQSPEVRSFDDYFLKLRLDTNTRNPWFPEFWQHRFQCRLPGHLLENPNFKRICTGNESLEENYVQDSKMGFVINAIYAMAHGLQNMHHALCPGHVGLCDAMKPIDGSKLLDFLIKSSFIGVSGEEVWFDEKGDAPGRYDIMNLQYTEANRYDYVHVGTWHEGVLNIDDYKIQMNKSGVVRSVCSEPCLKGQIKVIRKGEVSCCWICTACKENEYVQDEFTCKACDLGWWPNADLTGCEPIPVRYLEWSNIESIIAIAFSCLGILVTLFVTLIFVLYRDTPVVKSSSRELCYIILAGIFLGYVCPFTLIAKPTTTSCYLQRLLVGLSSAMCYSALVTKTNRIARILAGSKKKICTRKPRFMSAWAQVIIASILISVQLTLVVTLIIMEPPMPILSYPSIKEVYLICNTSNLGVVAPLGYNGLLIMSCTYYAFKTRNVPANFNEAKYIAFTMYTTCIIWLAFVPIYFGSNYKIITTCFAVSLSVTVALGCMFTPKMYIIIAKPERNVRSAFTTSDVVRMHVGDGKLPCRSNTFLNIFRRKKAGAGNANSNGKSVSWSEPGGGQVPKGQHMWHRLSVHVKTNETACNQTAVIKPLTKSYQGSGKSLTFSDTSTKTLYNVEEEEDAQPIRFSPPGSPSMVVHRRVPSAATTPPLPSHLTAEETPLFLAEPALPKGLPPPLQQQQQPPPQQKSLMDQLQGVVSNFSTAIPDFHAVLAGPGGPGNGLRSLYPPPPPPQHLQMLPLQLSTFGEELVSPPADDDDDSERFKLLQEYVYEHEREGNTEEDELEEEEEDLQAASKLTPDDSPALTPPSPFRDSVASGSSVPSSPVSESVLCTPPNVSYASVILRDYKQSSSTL

| Structure (SMILES) | IC50 [1] | agonistic effect to mGluR1 [1] | Motion (inhibition %) (Male ICR (CD-1) mice) |
| --- | --- | --- | --- |
| CC(C)(C)COC(=O)N1CCN(c2nc3ccccc3o2)CC1 [Example 3, 2,2-Dimethylpropyl 4-(benzoxazol-2-yl)-1-piperazinecarboxylate] | 0.033 µM | no agonistic effect |  |
| C[C@@H](O)c1nc(-c2ccnc(N3CCN(C(=O)OCC(C)(C)C)CC3)c2)no1 [Example 27, 2,2-Dimethylpropyl 4-(4-{5-[(1R)-1-hydroxyethyl]-1,2,4-oxadiazol-3-yl}pyridin-2-yl)-1-piperazinecarboxylate] | 0.0096 µM | no agonistic effect | >50% |

The next lines start with results.

| IC50 [1] | agonistic effect to mGluR1 [1] | Structure (SMILES) | Motion (inhibition %) (Male ICR (CD-1) mice) |
| --- | --- | --- | --- |
| 0.0069 µM | no agonistic effect | Cc1ccnc(N2CCN(C(=O)OCC(C)(C)C)CC2)c1 [Example 1, 2,2-Dimethylpropyl 4-(4-methylpyridin-2-yl)-1-piperazinecarboxylate] | >50% |
| 0.013 µM | no agonistic effect | CNc1nc(-c2ccnc(N3CCN(C(=O)OCC(C)(C)C)CC3)c2)no1 [Example 39, 2,2-Dimethylpropyl 4-{4-[5-(methylamino)-1,2,4-oxadiazol-3-yl]pyridin-2-yl}-1-piperazinecarboxylate] | >50% |
| 0.016 µM | no agonistic effect | C[C@H](O)c1nc(-c2ccnc(N3CCN(C(=O)CCC(C)(C)C)CC3)c2)no1 [Example 58, 1-(4,4-Dimethylpentanoyl)-4-(4-{5-[(1S)-hydroxyethyl]-1,2,4-oxadiazol-3-yl}pyridin-2-yl)piperazine] | >50% |
